The source of these data is ChEMBL document CHEMBL1157355, “Recent advances on phosphodiesterase 4 inhibitors for the treatment of asthma and chronic obstructive pulmonary disease” (J Med Chem, 2008).

The IC50 is the midpoint of a concentration-inhibition curve. For orientation: Ki means a measure of affinity in units of concentration, obtained from inhibition or displacement. Read a low Ki as tighter binding. In general, inhibition in vivo refers to how much of the control response was suppressed. A higher inhibition in vivo goes with a response far below the control.

In data set [1] the target is 3',5'-cyclic-AMP phosphodiesterase 4C (Homo sapiens, UniProt Q08493). Kind of data set: Inhibition of human PDE4C.
Data set [2] deals with Blood. Kind of data set: Inhibition of LPS-induced TNFalpha release in human whole blood. Type of data set: functional, tissue-based.
Data set [3] addresses 3',5'-cyclic-AMP phosphodiesterase 4A (Homo sapiens, UniProt P27815). Kind of data set: Inhibition of human PDE4A.
Data set [4] addresses 3',5'-cyclic-AMP phosphodiesterase 4D (Homo sapiens, UniProt Q08499). Kind of data set: Inhibition of human PDE4D.
For data set [5], the system named is Blood. Briefly: Inhibition of fMLP-induced LTB4 biosynthesis in human whole blood. In kind it is functional, tissue-based.
A short description of data set [6]: Displacement of [3H]rolipram from PDE4 by RBA. In general terms: Displacement assays read how much labelled ligand stays bound in the presence of the test substance.
Data set [7] in a line: Inhibition of PDE4.
Data set [8] is described as follows: Toxicity in rat stomach assessed as reduction in ability to increase acid secretion. Type of data set: tissue-based.
Data set [9] is described as follows: Inhibition of PDE10.
Data set [10] can be described thus: Inhibition of PDE11.
The test system of a further data set is Rattus norvegicus. Briefly: Inhibition of LPS-induced pulmonary inflammation in rat at 3 mg/kg, po. Type of data set: functional.

3',5'-cyclic-AMP phosphodiesterase 4A, sequence (P27815 whole entry): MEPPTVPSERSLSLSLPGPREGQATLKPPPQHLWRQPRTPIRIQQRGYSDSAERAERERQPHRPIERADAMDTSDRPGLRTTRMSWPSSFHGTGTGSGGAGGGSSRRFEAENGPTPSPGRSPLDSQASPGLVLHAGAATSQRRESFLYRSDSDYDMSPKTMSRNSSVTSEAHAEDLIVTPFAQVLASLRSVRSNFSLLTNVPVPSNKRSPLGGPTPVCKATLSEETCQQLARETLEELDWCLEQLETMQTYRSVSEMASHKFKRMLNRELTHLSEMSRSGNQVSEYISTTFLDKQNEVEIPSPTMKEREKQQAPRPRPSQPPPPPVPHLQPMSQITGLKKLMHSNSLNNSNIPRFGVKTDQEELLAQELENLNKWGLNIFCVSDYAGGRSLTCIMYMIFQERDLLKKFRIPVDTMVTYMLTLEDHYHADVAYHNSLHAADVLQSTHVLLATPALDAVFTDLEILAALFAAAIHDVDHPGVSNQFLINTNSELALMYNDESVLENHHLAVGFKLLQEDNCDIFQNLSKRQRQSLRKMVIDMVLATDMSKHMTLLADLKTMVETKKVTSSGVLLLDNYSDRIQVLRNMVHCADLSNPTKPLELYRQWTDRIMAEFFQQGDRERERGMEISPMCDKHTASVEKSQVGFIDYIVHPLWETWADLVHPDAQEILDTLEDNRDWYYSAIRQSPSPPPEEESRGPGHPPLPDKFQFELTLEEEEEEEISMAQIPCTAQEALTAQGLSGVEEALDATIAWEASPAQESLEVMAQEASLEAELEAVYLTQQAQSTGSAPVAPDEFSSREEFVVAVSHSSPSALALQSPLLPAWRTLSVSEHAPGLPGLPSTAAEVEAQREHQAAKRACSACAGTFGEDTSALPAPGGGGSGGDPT
3',5'-cyclic-AMP phosphodiesterase 4C, sequence (Q08493 whole entry): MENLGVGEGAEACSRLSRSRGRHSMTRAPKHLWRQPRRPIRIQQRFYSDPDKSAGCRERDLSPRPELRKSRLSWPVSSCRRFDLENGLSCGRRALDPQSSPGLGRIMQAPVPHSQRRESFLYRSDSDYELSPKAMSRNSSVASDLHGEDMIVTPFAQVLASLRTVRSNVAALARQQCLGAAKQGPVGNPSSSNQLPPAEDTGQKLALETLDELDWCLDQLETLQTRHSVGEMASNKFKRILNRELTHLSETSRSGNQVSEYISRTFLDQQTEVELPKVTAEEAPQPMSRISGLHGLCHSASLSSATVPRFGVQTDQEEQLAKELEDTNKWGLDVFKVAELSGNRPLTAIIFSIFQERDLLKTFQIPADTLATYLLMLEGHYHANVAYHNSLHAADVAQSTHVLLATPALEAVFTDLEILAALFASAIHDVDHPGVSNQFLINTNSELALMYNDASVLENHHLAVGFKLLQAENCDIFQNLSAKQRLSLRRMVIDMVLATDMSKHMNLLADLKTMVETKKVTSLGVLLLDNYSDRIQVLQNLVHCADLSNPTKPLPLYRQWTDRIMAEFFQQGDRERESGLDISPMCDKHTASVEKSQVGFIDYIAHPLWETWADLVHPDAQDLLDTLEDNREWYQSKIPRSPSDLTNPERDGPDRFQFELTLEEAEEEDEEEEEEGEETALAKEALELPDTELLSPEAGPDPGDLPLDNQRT
3',5'-cyclic-AMP phosphodiesterase 4D, sequence (Q08499 whole entry): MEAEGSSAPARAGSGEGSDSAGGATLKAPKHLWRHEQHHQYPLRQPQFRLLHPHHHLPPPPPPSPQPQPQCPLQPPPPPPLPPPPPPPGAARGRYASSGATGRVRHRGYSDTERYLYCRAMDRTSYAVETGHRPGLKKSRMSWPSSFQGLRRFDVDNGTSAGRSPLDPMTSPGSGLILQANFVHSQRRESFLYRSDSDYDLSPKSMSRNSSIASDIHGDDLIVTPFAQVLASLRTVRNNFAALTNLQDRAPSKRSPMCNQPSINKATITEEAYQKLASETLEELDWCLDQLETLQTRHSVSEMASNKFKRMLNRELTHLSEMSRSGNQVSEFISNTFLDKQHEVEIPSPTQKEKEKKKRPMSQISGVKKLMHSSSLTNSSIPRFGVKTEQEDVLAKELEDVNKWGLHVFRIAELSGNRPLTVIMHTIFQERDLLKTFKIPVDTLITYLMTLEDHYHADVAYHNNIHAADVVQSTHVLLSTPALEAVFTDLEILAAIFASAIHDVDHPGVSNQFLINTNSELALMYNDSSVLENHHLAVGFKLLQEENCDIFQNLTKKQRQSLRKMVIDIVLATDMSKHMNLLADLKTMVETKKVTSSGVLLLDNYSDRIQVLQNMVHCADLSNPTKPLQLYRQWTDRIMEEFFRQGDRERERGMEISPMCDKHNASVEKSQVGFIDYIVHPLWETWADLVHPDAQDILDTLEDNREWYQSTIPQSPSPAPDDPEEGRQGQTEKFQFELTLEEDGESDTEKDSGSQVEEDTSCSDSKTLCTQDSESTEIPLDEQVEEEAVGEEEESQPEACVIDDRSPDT

With `CC(C)C(=O)c1c(C(C)C)nn2ccccc12` [IBUDILAST], the IC50 in [1] amounted to 239 nM; with Blood [2], 6200 nM; in data set [3], 54 nM; in data set [4], 166 nM; in the data set on Blood [5], 2500 nM.
For the molecule `COc1ccc2c(Cc3c(Cl)cncc3Cl)nncc2c1OC1CCCC1`, the inhibition constant (Ki) in data set [6] stood at 149 nM. In addition, the IC50 came out at 53 nM in data set [7] and 7000 nM in data set [8].
Regarding `COc1ccc(-c2nc(C(=O)N3CCN(c4ncccn4)CC3)c(CN)o2)c2ccc(C(F)(F)F)nc12`, the IC50 in [9] came to 430 nM; in data set [10], 2000 nM. In the data set with Rattus norvegicus, this molecule yielded an inhibition in vivo at 3 mg/kg of 64%.
